Data from patent publication US7405228B2, “Antibacterial cyano-(substituted)-methylenepiperidinophenyl oxazolidinones targeting multiple ribonucleoprotein sites” (Wockhardt Limited, priority 2002, dated 2008).

| Structure (SMILES) | melting point [°C] |
| --- | --- |
| N#CC=C1CCN(c2ccc(N3C[C@H](CNC(=O)CI)OC3=O)cc2F)CC1 [Example 36, (S)-N-{3-[4-(4-cyanomethylidene-piperidin-1-yl)-3-fluorophenyl]-2-oxo-oxazolidin-5-ylmethyl}-iodoacetamide] | 178 to 180 |
| C[C@H](N)C(=O)NC[C@H]1CN(c2ccc(N3CCC(=CC#N)CC3)c(F)c2)C(=O)O1 [Example 41, (2S, 5S)-{N-{3-[4-(4-cyanomethylidene-piperidin-1-yl)-3-fluorophenyl]-2-oxo-oxazolidin-5-ylmethyl}-propionamid-2-yl}-amine] | 103 to 105 |
| N#CC=C1CCN(c2ccc(N3C[C@H](CNC(=O)C(N)CO)OC3=O)cc2F)CC1 (stereo partly drawn) [Example 42, (2S, 5S)-{N-{3-[4-(4-cyanomethylidene-piperidin-1-yl)-3-fluorophenyl]-2-oxo-oxazolidin-5-ylmethyl}-3-hydroxypropionamid-2-yl}-amine] | 88 to 90 |
| N#CC=C1CCN(c2ccc(N3C[C@H](CNC(=O)[C@@H](N)Cc4c[nH]cn4)OC3=O)cc2F)CC1 [Example 43, (2S, 5S){N-{3-[4-(4-cyanomethylidene-piperidin-1-yl)-3-fluorophenyl]-2-oxo-oxazolidin-5-ylmethyl}-3-(imidazol-4-yl)-propionamid-2-yl}-amine] | 93 to 96 |
| N#CC=C1CCN(c2ccc(N3C[C@H](CN4C(=O)c5ccccc5C4=O)OC3=O)cc2F)CC1 [Example 44, (S)-N-{3-[4-(4-cyanomethylidene-piperidin-1-yl)-3-fluorophenyl]-2-oxo-oxazolidin-5-ylmethyl}-1-pthalamide] | 183 to 185 |
| N#CC=C1CCN(c2ccc(N3C[C@H](CNC(=S)NCCO)OC3=O)cc2F)CC1 [Example 48, (S)-N-{3-[4-(4-cyanomethylidene-piperidin-1-yl)-3-fluorophenyl]-2-oxo-oxazolidin-5-ylmethyl}-2-hydroxyethylthiocarbamide] | 168 to 170 |
| N#CC=C1CCN(c2ccc(N3C[C@H](CNC(=S)CN)OC3=O)cc2F)CC1 [Example 49, (S)-N-{3-[4-(4-cyanomethylidene-piperidin-1-yl)-3-fluorophenyl]-2-oxo-oxazolidin-5-ylmethylamino}-thiocarbonylmethylamine] | 157 to 158 |
| CNC(=S)NC[C@H]1CN(c2ccc(N3CCC(=CC#N)CC3)c(F)c2)C(=O)O1 [Example 52, (S)-N-{3-[4-(4-cyanomethylidene-piperidin-1-yl)-3-fluorophenyl]-2-oxo-oxazolidin-5-ylmethyl}-methylthiocarbamide] | 191 to 192 |
| CS(=O)(=O)OC[C@H]1CN(c2ccc(N3CCC(=CC#N)CC3)c(F)c2)C(=O)O1 [Example 54, (R)-{3-[4-(4-cyanomethylidene-piperidin-1-yl)-3-fluorophenyl]-2-oxo-oxazolidin-5-ylmethyl}-methanesulphonate] | 126 to 128 |
| CC(C)COC(=O)NC[C@H]1CN(c2ccc(N3CC/C(=C\C#N)C(F)C3)c(F)c2)C(=O)O1 (stereo partly drawn) [Example 58, (S)-N-{3-[4-(4-cyanomethylidene-3-fluoropiperidin-1-yl)-3-fluorophenyl]-2-oxo-oxazolidin-5-ylmethyl}-isobutylcarbamate] | 162 to 164 |
| CS(=O)(=O)OC[C@H]1CN(c2ccc(N3CC/C(=C\C#N)C(F)C3)c(F)c2)C(=O)O1 (stereo partly drawn) [Example 59, (R)-{3-[4-(4-cyanomethylidene-3-fluoropiperidin-1-yl)-3-fluorophenyl]-2-oxo-oxazolidin-5-ylmethyl}-methanesulphonate] | 116 to 118 |
| CC1CN(c2ccc(N3C[C@H](CNC=O)OC3=O)cc2F)CC/C1=C\C#N (stereo partly drawn) [Example 62, (S)-N-{3-[4-(4-cyanomethylidene-3-methylpiperidin-1-yl)-3-fluorophenyl]-2-oxo-oxazolidin-5-ylmethyl}-formamide] | 98 to 100 |
| CC(=O)NC[C@H]1CN(c2ccc(N3CC/C(=C\C#N)C(C)C3)c(F)c2)C(=O)O1 (stereo partly drawn) [Example 63, (S)-N-{3-[4-(4-cyanomethylidene-3-methylpiperidin-1-yl)-3-fluorophenyl]-2-oxo-oxazolidin-5-ylmethyl}-acetamide] | 152 to 153 |
| CC1CN(c2ccc(N3C[C@H](CNC(=O)CC#N)OC3=O)cc2F)CC/C1=C\C#N (stereo partly drawn) [Example 65, (S)-N-{3-[4-(4-cyanomethylidene-3-methylpiperidin-1-yl)-3-fluorophenyl]-2-oxo-oxazolidin-5-ylmethyl}-2-cyanoacetamide] | 102 to 104 |
| CC1CN(c2ccc(N3C[C@H](CNc4nccs4)OC3=O)cc2F)CC/C1=C\C#N (stereo partly drawn) [Example 66, (S)-2-{3-[4-(4-cyanomethylidene-3-methylpiperidin-1-yl)-3-fluorophenyl]-2-oxo-oxazolidin-5-ylmethylamino}-1,3-thiazole] | 75 to 77 |
| CC(=O)NC[C@H]1CN(c2ccc(N3CC/C(=C/C#N)C(C)(C)C3)c(F)c2)C(=O)O1 [Example 70, (S)-N-{3-[4-(4-cyanomethylidene-3,3-dimethylpiperidin-1-yl)-3-fluorophenyl]-2-oxo-oxazolidin-5-ylmethyl}-acetamide] | 150 to 152 |

| Structure (SMILES) | melting point [°C] |
| --- | --- |
| CC(=O)NC[C@H]1CN(c2ccc(N3CCC(=C(C)C#N)CC3)cc2)C(=O)O1 [Example 72, (S)-N-{3-[4-(4-(1-cyanoethylidene)-piperidin-1-yl)-phenyl]-2-oxo-oxazolidin-5-ylmethyl}-acetamide] | 94 to 96 |
| CC(C#N)=C1CCN(c2ccc(N3C[C@H](CNC=O)OC3=O)cc2F)CC1 [Example 73, (S)-N-{3-[4-(4-(1-cyanoethylidene)-piperidin-1-yl)-3-fluorophenyl]-2-oxo-oxazolidin-5-ylmethyl}-formamide] | 188 to 190 |
| CC(C#N)=C1CCN(c2ccc(N3C[C@H](CNC(=O)CC#N)OC3=O)cc2F)CC1 [Example 75, (S)-N-{3-[4-(4-(1-cyanoethylidene)-piperidin-1-yl)-3-fluorophenyl]-2-oxo-oxazolidin-5-ylmethyl}-2-cyanoacetamide] | 194 to 196 |
| CC(C#N)=C1CCN(c2ccc(N3C[C@H](CNC(=O)CN)OC3=O)cc2F)CC1 [Example 76, (S)-N-{3-[4-(4-(1-cyanoethylidene)-piperidin-1-yl)-3-fluorophenyl]-2-oxo-oxazolidin-5-ylmethylamino}-carboxymethylamine] | 141 to 142 |
| CC(C#N)=C1CCN(c2ccc(N3C[C@H](CNC(=O)C(Cl)(Cl)Cl)OC3=O)cc2F)CC1 [Example 80, (S)-N-{3-[4-(4-(1-cyanoethylidene)-piperidin-1-yl)-3-fluorophenyl]-2-oxo-oxazolidin-5-ylmethyl}-trichloroacetamide] | 166 to 168 |
| CC(C#N)=C1CCN(c2ccc(N3C[C@H](CNC(=O)OCC(C)C)OC3=O)cc2F)CC1 [Example 81, (S)-N-{3-[4-(4-(1-cyanoethylidene)-piperidin-1-yl)-3-fluorophenyl]-2-oxo-oxazolidin-5-ylmethyl}-isobutylcarbamate] | 158 to 160 |
| CC(C#N)=C1CCN(c2ccc(N3C[C@H](CO)OC3=O)cc2F)CC1 [Example 82, (R)-{3-[4-(4-(1-cyanoethylidene)-piperidin-1-yl)-3-fluorophenyl]-2-oxo-oxazolidin-5-ylmethyl}-alcohol] | 100 to 102 |
| CC(C#N)=C1CCN(c2ccc(N3C[C@H](COc4ccon4)OC3=O)cc2F)CC1 [Example 83, (R)-3-{3-[4-(4-(1-cyanoethylidene)-piperidin-1-yl)-3-fluorophenyl]-2-oxo-oxazolidin-5-ylmethyloxy}-iso-oxazole] | 137 to 138 |
| CC(=O)NC[C@H]1CN(c2ccc(N3CC/C(=C(/C)C#N)C(F)C3)c(F)c2)C(=O)O1 (stereo partly drawn) [Example 85, (S)-N-{3-[4-(4-(1-cyanoethylidene)-3-fluoropiperidin-1-yl)-3-fluorophenyl]-2-oxo-oxazolidin-5-ylmethyl}-acetamide] | 148 to 150 |
| CC(=O)NC[C@H]1CN(c2ccc(N3CC/C(=C(\C)C#N)C(F)C3)c(F)c2)C(=O)O1 (stereo partly drawn) [Example 87, Z-(S)-N-{3-[4-(4-(1-cyanoethylidene)-3-fluoropiperidin-1-yl)-3-fluorophenyl]-2-oxo-oxazolidin-5-ylmethyl}-acetamide] | 148 to 150 |
| CCC(C#N)=C1CCN(c2ccc(N3C[C@H](CNC(=O)C(Cl)(Cl)Cl)OC3=O)cc2F)CC1 [Example 91, (S)-N-{3-[4-(4-(1-cyanopropylidene)-piperidin-1-yl)-3-fluorophenyl]-2-oxo-oxazolidin-5-ylmethyl}-trichloroacetamide] | 150 to 152 |
| CCC(C#N)=C1CCN(c2ccc(N3C[C@H](CNC(=O)CBr)OC3=O)cc2F)CC1 [Example 92, (S)-N-{3-[4-(4-(1-cyanopropylidene)-piperidin-1-yl)-3-fluorophenyl]-2-oxo-oxazolidin-5-ylmethyl}-bromoacetamide] | 200 to 203 |
| CC(=O)NC[C@H]1CN(c2ccc(N3CCC(=C(C#N)n4ccnc4)CC3)c(F)c2)C(=O)O1 [Example 102, (S)-N-{3-[4-(4-(1-cyano-1-(imidazol-1-yl)-methylidene)-piperidin-1-yl)-3-fluorophenyl]-2-oxo-oxazolidin-5-ylmethyl}-acetamide] | 196 to 198 |
| CC(=O)NC[C@H]1CN(c2ccc(N3CCC(=C(C#N)n4ccnc4C)CC3)c(F)c2)C(=O)O1 [Example 103, (S)-N-{3-[4-(4-(1-cyano-1-(2-methyl-imidazol-1-yl)-methylidene)-piperidin-1-yl)-3-fluorophenyl]-2-oxo-oxazolidin-5-ylmethyl}-acetamide] | 204 to 206 |
| CC(=O)NC[C@H]1CN(c2ccc(N3CCC(=C(C#N)n4cncn4)CC3)c(F)c2)C(=O)O1 [Example 104, (S)-N-{3-[4-(4-(1-cyano-1-(1,2,4-triazol-1-yl)-methylidene)-piperidin-1-yl)-3fluorophenyl]-2-oxo-oxazolidin-5-ylmethyl}-acetamide] | 194 to 196 |
| CC(=O)NC[C@H]1CN(c2ccc(N3CCC(=C(C#N)CCO)CC3)c(F)c2)C(=O)O1 [Example 113, (S)-N-{3-[4-(4-(1-cyano-3-hydroxy-propylidene)-piperidin-1-yl)-3-fluorophenyl]-2-oxo-oxazolidin-5-ylmethyl}-acetamide] | 192 to 194 |
